Key:
human GPBAR1 = target: T1, human GPBAR1 (Homo sapiens, UniProt Q8TDU6); experiment: GPBAR1 CRE-luciferase reporter transactivation assay in HEK-293T cells; type: cell-based; conditions: HEK293T cells
T1 construct: expressed in transfected cells; host or cells: HEK-293T cells, transient transfection (Fugene HD)
T1 sequence (Q8TDU6 1-330): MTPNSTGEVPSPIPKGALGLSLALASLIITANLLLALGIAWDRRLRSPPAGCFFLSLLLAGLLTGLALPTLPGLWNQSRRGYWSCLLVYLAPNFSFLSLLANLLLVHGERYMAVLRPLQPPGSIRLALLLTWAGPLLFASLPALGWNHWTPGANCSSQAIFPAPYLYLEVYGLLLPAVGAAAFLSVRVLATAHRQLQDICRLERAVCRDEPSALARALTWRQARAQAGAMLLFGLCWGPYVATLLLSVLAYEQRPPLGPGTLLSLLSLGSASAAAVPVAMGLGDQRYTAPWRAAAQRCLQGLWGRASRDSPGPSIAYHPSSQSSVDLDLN
Description: GPBAR1. […] At 18 h post stimulations, cellular lysates were assayed for luciferase and Renilla activities using the Dual-Luciferase Reporter assay system (E1980, Promega Madison WI). Luminescence was measured using Glomax 20/20 luminometer (Promega, Madison WI). Luciferase activities were normalized with Renilla activities.
Agonistic activities of compounds on GPBAR1 were compared to TLCA, which was set as 100%.

[1] = test system: C57BL/6J male mice fed HFD-F; experiment: HFD-F mouse model of NAFLD/NASH (body weight, OGTT, biochemistry, histopathology, adipose tissues); type: in vivo; conditions: 30 mg/kg/day by gavage
Excerpt: (§1) C57BL/6J male mice were fed a high fat diet (HFD) containing 59 KJ% fat plus 1% cholesterol, w/o sugar (ssniff ® EF R/M acc. D12330 mod. 22,7 ME/kg) and fructose (HFD-F) in drinking water (42 g/L), or normal chow diet for 61 days. Food intake was estimated as the difference of weight between the offered and the remnant amount of food at 3-days intervals. The food was provided as pressed pellets and the residual spillage was not considered. After 7 days, HFD-F mice were randomized to receive HFD-F alone or in combination with compound 2 (30 mg/kg/day) by gavage until the end of the experiment. Doses of each agent were chosen according to previously published data. Mice were housed under controlled temperature (22°C) and photoperiods (12:12-h light/dark cycle), allowed unrestricted access to standard mouse chow and tap water. The experimental protocol was approved by the Animal Care and Use Committee of the University of Perugia and by the Italian Minister of Health and Istituto Superiore di Sanità (Italy) and was in agreement with the European guidelines for use of experimental animals (permission n. 583/2017-PR). The general health of the animals was monitored daily by the Veterinarian in the animal facility. At the day of sacrifice, fed mice were deeply anesthetized with a mixture of tiletamine hypochloride and zolazepam hypochloride/xylazine at a dose of 50/5 mg/kg and sacrificed before 12 a.m.
Body weight and body length (nose-to-anus or nose–anus length) were measured in anesthetized mice at the time of sacrifice and were used to calculate the body mass index (BMI) (=body weight (g)/length^2 (cm^2)) and the Lee index (=cube root of body weight (g)/nose-to-anus length (cm)).
AST, ALT, total- and HDL-cholesterol, and triglycerides plasmatic levels were quantified using an automated clinical chemistry analyzer (Cobas, Roche).
After 8 weeks of HFD-F mice were fasted overnight and orally administered glucose (1.5 g/kg body weight) for OGTT. The blood glucose concentrations were measured at 0, 15, 30, 60, 90, and 120 min after feeding or injection using a portable glucose meter (Accu-Check Go, Roche).
Temperature of brown adipose tissue (BAT) was recorded through the study using a noninvasive technology. Briefly, mice were maintained at 25°C and the thermal images were taken by a FLIR E6 thermal imaging camera (FLIR System, Wilsonville, Oregon) and the surface temperature quantified by the FLIR Tools.
For histological examination, portions of the right and left liver lobes were fixed in 10% formalin, embedded in paraffin, sectioned and stained with Sirius red and/or Hematoxylin/Eosin (H&E), for morphometric analysis ([Fiorucci et al., 2004]). NASH severity (steatosis, hepatocytes ballooning, lobular inflammation, and portal inflammation) was scored in H&E-stained cross sections using an adapted grading system of human NASH as described previously ([Carino et al., 2017b]).

[2] = test system: eWAT and colon mRNA expression; experiment: Quantitative real-time PCR of eWAT and colon of HFD-F mice; type: in vivo; conditions: 30 mg/kg/day by gavage
Excerpt: as §1
RNA was extracted from eWAT and colon with Direct-zol™ RNA MiniPrep w/Zymo-Spin™ IIC Columns (Zymo Research, Irvine, CA) and it was subjected to reverse transcription with FastGene Scriptase Basic Kit (Nippon Genetics Europe) in a 20 μL reaction volume.
For real time PCR, 50 ng cDNA were amplified in a 20 μL solution containing 200 nM of each primer and 10 μL of SYBR Select Master Mix (Thermo Fisher Scientific, Waltham, MA, United States). All reactions were performed in triplicate, and the thermal cycling conditions were as follows: 10 min at 95°C, followed by 40 cycles of 95°C for 10 s and 60°C for 45 s with QuantStudio™ 3 Real-Time PCR System (Applied Biosystems). The relative mRNA expression was calculated and expressed as 2−(ΔΔCt). Expression of the respective gene was normalized against Gapdh mRNA as an internal control. The following primers for Real-Time PCR were used: mouse-Gapdh: ctgagtatgtcgtggagtctac and gttggtggtgcaggatgcattg; mouse-Srebf1: gatcaaagaggagccagtgc and tagatggtggctgctgagtg; mouse-Fasn: tcaagatgaaggtggcagaggtgct and ttgagcagtgccgggattcgg; mouse-Pgc1α: cttagcactcagaaccatgcag and aatgctcttcgctttattgctc; mouse-Fxr: actggaccacgaagatcagatt and gagcgtactcctcctgagtcat; mouse-adiponectin: tgacagatcagctcgagtgg and cagtgccgtcagttcttgtg; mouse-Tnf-α: ccaccacgctcttctgtcta and agggtctgggccatagaact; mouse-ucp2: ttgcccgtaatgccattgtc and gcaagggaggtcatctgtca; mouse-cd11b gtcagagtctgcctccgtgt and cagggtctaaagccaggtca; mouse-pparγ: gccagtttcgatccgtagaa and aatccttggccctctgagat; mouse-Il-1β: gctgaaagctctccacctca and aggccacaggtattttgtcg; mouse-Gcg: ccaagattttgtgcagtggtt and ccttcagcatgcctctcaaa.

`O=C(O)c1cccc(-c2ccc(OCc3ccc4ccccc4n3)cc2)c1` [Compound 2, 4'-(quinolin-2-ylmethoxy)-[1,1′-biphenyl]-3-carboxylic acid] was tested, and the EC50 (human GPBAR1; CRE luciferase) was 4.6 ± 1.5 µM, the Emax (human GPBAR1; HEK-293T, compound 10 µM relative to TLCA (10 μM) as 100, CRE transactivation, read-out: GPBAR1 Eff (%) maximum efficacy) was 82 ± 1.2% and the ALT plasma levels [1] was “reduced”. For the same compound, the AST plasma levels [1] was “reduced”, the “body mass index (BMI)” value [1] was “reduced” and the eWAT weight [1] was “reduced”. The “insulin sensitivity (OGTT)” value [1] was “increased”, the “liver fibrosis and collagen deposition (Sirius red)” value [1] was “robustly attenuated” and the “liver steatosis and hepatocytes ballooning (H&E)” value [1] was “highly effective in reversing these features”. The liver weight [1] was “reversed the effect exerted by the diet”, the proatherogenic lipid profile [1] was “partially reversed” and the “ratio of BAT weight/body weight” value [1] was “reduced”. The “ratio of eWAT weight/body weight” value [1] was “reduced these changes”, the “volume of BAT” value [1] was “reduced” and the body weight gain ([1]; 54 days) was “reduced”. The “colon expression of Gcg” value [2] was “upregulated”, the “colon expression of Il-1β” value [2] was “strongly reduced” and the “eWAT expression of Cd11b” value [2] was “robustly reduced”. The “eWAT expression of Tnf-α” value [2] was “robustly reduced” and the “eWAT expression of Ucp2” value [2] was “upregulated”.

— publication PMC9085577, “Discovery of a Potent and Orally Active Dual GPBAR1/CysLT1R Modulator for the Treatment of Metabolic Fatty Liver Disease” (Frontiers in Pharmacology, 2022)
